How the values were obtained:
Paw Edema = assay: Rat paw edema assay (carrageenan); assay type: in vivo; details: male Sprague-Dawley rats, 3 hr after carrageenan
Description: Male Sprague-Dawley rats (150–200 g) are fasted overnight and are given p.o., either vehicle (1% methocell) or a test compound in the morning. One hr later, a line drawn using a permanent marker at the level above the ankle in one hind paw to define the area of the paw to be monitored. The paw volume (VOh) is measured using a plethysmometer (Ugo-Basile, Italy) based on the principle of water displacement. The animals are then injected subplantarly with 50 ul of a 1% carrageenan solution in saline (sigma Chem) into the paw using an insulin syringe with a 25-gauge needle (i.e. 500 ug carrageenan per paw). Three hr later, the paw volume (V3h) is measured and the increases in paw volume (V3h−VOh) are calculated. Paw edema data are the compared with the vehicle-control group and percent inhibitions calculated taking the values in the control group as 100%. All treatment groups are coded to eliminate observer bias.

microsomal human COX-1 = biological target: T1, microsomal human COX-1 (Homo sapiens, UniProt P23219); assay: Microsomal cyclooxygenase assay, COX-1; assay type: biochemical; details: microsomal fraction, PGE2 by EIA; read-out: IC50 against microsomal human COX-1
T1 construct: from which microsomes are prepared for microsomal assays, are human osteosarcoma 143 cells; endogenous in cells; host or cells: human U-937 cells (microsomal fraction)
T1 sequence (P23219 24-599): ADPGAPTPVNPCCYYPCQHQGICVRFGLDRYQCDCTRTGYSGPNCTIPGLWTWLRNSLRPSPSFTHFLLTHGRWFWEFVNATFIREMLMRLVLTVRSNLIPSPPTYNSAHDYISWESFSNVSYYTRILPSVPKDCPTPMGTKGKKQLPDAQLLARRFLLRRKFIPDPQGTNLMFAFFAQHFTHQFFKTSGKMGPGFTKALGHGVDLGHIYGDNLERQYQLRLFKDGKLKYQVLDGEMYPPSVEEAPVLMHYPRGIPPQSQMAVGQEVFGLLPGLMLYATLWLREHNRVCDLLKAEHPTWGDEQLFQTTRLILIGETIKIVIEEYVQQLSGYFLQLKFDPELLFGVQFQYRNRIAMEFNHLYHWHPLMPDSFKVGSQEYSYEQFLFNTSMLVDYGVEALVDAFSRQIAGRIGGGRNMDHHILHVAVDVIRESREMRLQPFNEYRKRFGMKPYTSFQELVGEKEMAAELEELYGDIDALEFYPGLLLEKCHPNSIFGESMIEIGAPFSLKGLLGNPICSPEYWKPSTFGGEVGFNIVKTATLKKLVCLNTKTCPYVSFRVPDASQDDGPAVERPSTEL
Description: (§1) Compounds are tested as inhibitors of cyclooxygenase activity in whole cell and microsomal cyclooxygenase assays. Both of these assays measure prostaglandin E2 (PGE2) synthesis in response to arachidonic acid, using a radioimmunoassay. Cells used for whole cell assays, and from which microsomes are prepared for microsomal assays, are human osteosarcoma 143 cells (which specifically express cyclooxygenase-2) and human U-937 cells (which specifically express cyclooxygenase-1). In these assays, 100% activity is defined as the difference between prostaglandin E2 synthesis in the absence and presence of arachidonate addition. IC50 values represent the concentration of putative inhibitor required to return PGE2 synthesis to 50% of that obtained as compared to the uninhibited control.
(§2) Cox microsomal fractions are prepared as previously described (Percival et al., Arch. Biochem. Biophys. (1994) 315:111–118). The enzyme reactions are performed in 50 mM KPi pH 8.0, 1 μM heme, 1 mM phenol supplemented with 10 μg/ml of each Cox-1 or Cox-2 microsomal fractions. 1 μl DMSO or test compound (100 fold stock concentrated in DMSO) are added to 100 μl buffer. The enzyme reaction is initiated 15 minutes later by the addition of 10 μl of 100 μM arachidonic acid. […] PGE2 levels are then determined by EIA (Assay Designs) using the manufacturer's instruction.

microsomal human COX-2 = biological target: T2, microsomal human COX-2 (Homo sapiens, UniProt P35354); assay: Microsomal cyclooxygenase assay, COX-2; assay type: biochemical; details: microsomal fraction, PGE2 by EIA; read-out: IC50 against microsomal human COX-2
T2 construct: from which microsomes are prepared for microsomal assays, are human osteosarcoma 143 cells; endogenous in cells; host or cells: human osteosarcoma 143 cells (microsomal fraction)
T2 sequence (P35354 18-604): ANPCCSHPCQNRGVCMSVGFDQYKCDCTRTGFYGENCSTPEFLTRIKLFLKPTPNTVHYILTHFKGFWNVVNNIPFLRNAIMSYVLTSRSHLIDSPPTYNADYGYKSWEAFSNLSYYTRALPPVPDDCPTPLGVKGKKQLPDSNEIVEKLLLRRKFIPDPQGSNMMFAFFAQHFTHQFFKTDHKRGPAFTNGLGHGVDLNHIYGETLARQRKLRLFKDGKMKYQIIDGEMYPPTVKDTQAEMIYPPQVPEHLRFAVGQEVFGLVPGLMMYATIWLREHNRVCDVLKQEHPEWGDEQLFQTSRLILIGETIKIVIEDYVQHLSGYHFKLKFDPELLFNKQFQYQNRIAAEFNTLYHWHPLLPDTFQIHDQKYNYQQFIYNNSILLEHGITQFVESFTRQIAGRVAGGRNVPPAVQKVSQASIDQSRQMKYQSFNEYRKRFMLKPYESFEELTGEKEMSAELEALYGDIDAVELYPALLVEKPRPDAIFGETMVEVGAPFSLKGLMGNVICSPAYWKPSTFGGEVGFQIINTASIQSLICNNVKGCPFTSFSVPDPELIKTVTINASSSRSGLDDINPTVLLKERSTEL
Description: as §1, §2

Structure (SMILES)	Paw Edema (% inhibition) (Paw Edema; dose 1 mg/kg p.o.) [%]	Paw Edema (% inhibition) (Paw Edema; dose 3 mg/kg p.o.) [%]	Paw Edema (% inhibition) (Paw Edema; dose 10 mg/kg p.o.) [%]	Paw Edema (% inhibition) (Paw Edema; dose 30 mg/kg p.o.) [%]	IC50 (microsomal human COX-1) [µM]	IC50 (microsomal human COX-2) [µM]
COC(=O)/C(=C(\COC(=O)OCCCCO[N+](=O)[O-])c1ccc(S(C)(=O)=O)cc1)c1ccccc1 [Example 3, methyl (2Z)-3-[4-(methylsulfonyl)phenyl]-4-({[4-(nitrooxy)butoxy]carbonyl}oxy)-2-phenylbut-2-enoate]	42	51	68	79		
CCOC(=O)/C(=C(\COC(=O)OCCCCCCO[N+](=O)[O-])c1ccc(S(C)(=O)=O)cc1)c1ccccc1 [Example 9, Ethyl (2Z)-3-[4-(methylsulfonyl)phenyl]-4-[({[6-(nitrooxy)hexyl]oxy}carbonyl)oxy]-2-phenylbut-2-enoate]					> 100	> 100
